In paper PMC10745867, “Biotransformation of Ursonic Acid by Aspergillus ochraceus and Aspergillus oryzae to Discover Anti-Neuroinflammatory Derivatives” (Molecules, 2023):
“Also recorded” adds a separate entry of the source.

What was measured:
[1] = Cell viability of BV-2 cells (MTT assay); assay type: cell-based; design: concentration or dose not given beside the values; conditions: mouse, mean ± SD, n = 3
Protocol: (§1) NO production was assessed indirectly using the Griess reaction by measuring nitrite concentration in a culture medium. BV-2 cells were cultured in Dulbecco’s Modified Eagle Medium, supplemented with 10% FBS, 100 units/mL of penicillin, and 100 μg/mL of streptomycin. These cells were seeded in 96-well plates at a density of 8 × 10^4 cells/well and incubated for 24 h. Post incubation, they were exposed to 100 ng/mL of LPS alongside different compound concentrations for 48 h. A mixture of 100 μL culture supernatant and Griess reagent was left at room temperature for 10 min, with absorbance later read at 570 nm. L-NMMA served as the positive control. Cell viability was determined using the MTT assay, and experiments were conducted in triplicate. The IC50 for NO production inhibition was computed using GraphPad Prism 7.00 software.

[2] = tested on: NO production induced by LPS in BV-2 cells; experiment: Inhibition of LPS-induced NO production in BV-2 cells (Griess method); assay type: cell-based; conditions: for IC50: BV-2 cells, 100 ng/mL LPS, 48 h, Griess reaction, mean ± SD, n = 3; for Suppression of NO generation (result in words): LPS-triggered BV-2 cells, Griess method
Protocol: To assess the potential capabilities of all modified products in counteracting neuroinflammation, we measured their suppressive effects on NO generation within LPS-triggered BV-2 cells using the Griess method.
as §1

SMILES | viability at 48 h [1] | IC50 ([2]; Mus musculus, BV-2, 48 h) | Suppression of NO generation (result in words) [2] | melting point | IC50 [2]
C[C@@H]1CC[C@]2(C(=O)O[C@@H]3O[C@H](CO)[C@@H](O)[C@H](O)[C@H]3O)CC[C@]3(C)C(=CCC4[C@@]5(C)CCC(=O)C(C)(C)C5CC[C@]43C)C2[C@H]1C (stereo partly drawn) [Compound 12, ursonic acid-28-O-β-D-glucopyranosyl ester] | 98.2 ± 4.37% | 31.1 ± 3.98 µM |  |  | 
[H]/N=C(/NC)NCCC[C@H](N)C(=O)O [L-NMMA, reference compound] | 101 ± 4.36% | 28.2 ± 2.97 µM |  |  | 
CC1C(O)CC23CCC4(C)C(C=CC5C6(C)CCC(=O)C(C)(C)C6CC(O)C54C)(OC2=O)C3C1C (stereo not drawn) [Compound 9, 3-oxo-7β,21β-dihydroxy-urs-11-en-13β,28β-lactone] | 104 ± 3.86% | > 100 µM | did not showcase any suppression capabilities; also recorded: did not exhibit any inhibitory activities | 261 to 265 °C | 
C[C@H]1[C@H](C)C2C3=CCC4[C@@]5(C)CCC(=O)C(C)(C)C5C[C@H](O)[C@@]4(C)[C@]3(C)CC[C@@]2(C(=O)O)C[C@@H]1O (stereo partly drawn) [Compound 3, 3-oxo-7β,21β-dihydroxy-12-en-28-oic acid] | 100 ± 3.92% | 20.9 ± 2.13 µM |  |  | 
C[C@H]1[C@H](C)C2C3=CCC4[C@@]5(C)CCC(=O)C(C)(C)C5CC[C@@]4(C)[C@]3(C)CC[C@@]2(C(=O)O)C[C@@H]1O (stereo partly drawn) [Compound 2, 3-oxo-21β-hydroxy-12-en-urs-28-oic acid] | 101 ± 2.45% | 38.2 ± 4.09 µM |  |  | 
CC1=C2C(C3OC3C34OC(=O)C5(CCC23C)CC(O)C(C)C(C)C54)C2(C)CCC(=O)C(C)(C)C2C1 (stereo not drawn) [Compound 19, 3-oxo-21β-hydroxyl-7-methyl-11β,12β-epoxyl-7-ene-26-norurs-13β,28β-lactone] | 103 ± 3.03% | 5.3 µM |  | 282 to 284 °C | 5.25 ± 3.19 µM
C[C@@H]1CC[C@]2(C(=O)O)CC[C@]3(C)C(=CC(=O)C4[C@@]5(C)CCC(=O)C(C)(C)C5CC[C@]43C)C2[C@H]1C (stereo partly shown) [Compound 6, 3,11-dioxo-12-en-urs-28-oic acid] | 105 ± 4.23% | 50.2 ± 3.16 µM |  |  | 
CC1C(=O)CC23CCC4(C)C5(C)C(O)CC6C(C)(C)C(=O)CCC6(C)C5C5OC5C4(OC2=O)C3C1C (stereo not drawn) [Compound 17, 3,21-dioxo-7β-hydroxyl-11β,12β-epoxyl-urs-13β,28β-lactone] | 100 ± 3.54% | 40.8 ± 3.26 µM |  | 247 to 249 °C | 
CC1C(O)CC23CCC4(C)C5(C)CCC6C(C)(C)C(=O)CCC6(C)C5C5OC5C4(OC2=O)C3C1C (stereo not drawn) [Compound 13, 3-oxo-21β-hydroxyl-11β,12β-epoxyl-urs-13β,28β-lactone] | 103 ± 3.59% | 15.2 ± 3.07 µM |  | 257 to 263 °C | 
COC1=CCC2(C)C(CCC3(C)C2CC=C2C4C(C)C(C)CCC4(C(=O)O)CCC23C)C1(C)C (stereo not shown) [Compound 10, 3-methoxy-urs-2,12-dien-28-oic acid] | 104 ± 4.05% | 8.2 µM |  | 284 to 288 °C | 8.23 ± 2.61 µM
CC1C(O)CC23CCC4(C)C5(C)CCC6C(C)(C)C(=O)C=CC6(C)C5C5OC5C4(OC2=O)C3C1C (stereo not drawn) [Compound 18, 3-oxo-21β-hydroxyl-11β,12β-epoxyl-urs-1-ene-13β,28β-lactone] | 103 ± 3.26% | 17.4 ± 2.72 µM |  | 242 to 245 °C | 
C[C@@H]1CC[C@]2(C(=O)O)CC[C@]3(C)C(=CCC4[C@@]5(C)CCC(=O)C(C)(C)C5CC[C@]43C)C2[C@]1(C)O (stereo partly drawn) [Compound 11, 3-oxo-19α-hydroxy-12-en-urs-28-oic acid] | 101 ± 3.42% | 42.5 ± 3.7 µM |  |  | 
CC1C(O)CC23CCC4(C)C5(C)C(O)CC6C(C)(C)C(=O)CCC6(C)C5C5OC5C4(OC2=O)C3C1C (stereo not drawn) [Compound 15, 3-oxo-7α,21β-dihydroxyl-11β,12β-epoxyl-urs-13β,28β-lactone] | 102 ± 3.18% | 36.6 ± 2.33 µM |  | 270 to 274 °C | 
CC1C(O)CC23CCC4(C)C5(C)CCC6C(C)(C)C(=O)CC(O)C6(C)C5C5OC5C4(OC2=O)C3C1C (stereo not drawn) [Compound 14, 3-oxo-1β,21β-dihydroxyl-11β,12β-epoxyl-urs-13β,28β-lactone] | 104 ± 4.92% | 22.6 ± 3.44 µM |  | 278 to 280 °C | 
C[C@H]1[C@H](C)CC[C@]2(C(=O)O)CC[C@]3(C)C(=CC[C@@H]4[C@@]5(C)CCC(=O)C(C)(C)[C@@H]5CC[C@]43C)[C@H]12 [Compound 1, Ursonic acid] | 98.8 ± 3.61% | 84.7 ± 3.22 µM |  |  | 
C[C@@H]1C(=O)C[C@]2(C(=O)O)CC[C@]3(C)C(=CCC4[C@@]5(C)CCC(=O)C(C)(C)C5CC[C@]43C)C2[C@H]1C (stereo partly shown) [Compound 4, 3,21-dioxo-urs-12-en-28-oic acid] | 104 ± 3.18% | > 100 µM | did not showcase any suppression capabilities |  | 
CC1C(=O)CC2(C(=O)O)CCC3(C)C(=CCC4C5(C)CCC(=O)C(C)(C)C5CC(O)C43C)C2C1C (stereo not drawn) [Compound 5, 3,21-dioxo-7β-hydroxy-urs-12-en-28-oic acid] | 101 ± 4.11% | 52.8 ± 3.34 µM |  | 251 to 254 °C | 
CC1C(O)CC23CCC4(C)C5(C)CCC6C(C)(C)C(=O)CCC6(C)C5C=CC4(OC2=O)C3C1C (stereo not drawn) [Compound 8, 3-oxo-21β-hydroxy-urs-11-en-13β,28β-lactone] | 102 ± 3.54% | > 100 µM | did not showcase any suppression capabilities; also recorded: did not exhibit any inhibitory activities | 245 to 247 °C | 
COC1C=C2C3C(C)C(C)C(O)CC3(C(=O)O)CCC2(C)C2(C)CCC3C(C)(C)C(=O)CCC3(C)C12 (stereo not drawn) [Compound 7, 3-oxo-11α-methoxy-21β-hydroxy-urs-12-en-28-oic acid] | 99.2 ± 3.72% | 11.6 ± 2.01 µM |  | 268 to 271 °C | 
C[C@H]1[C@H](C)C2[C@@]3(CC[C@@]4(C)[C@@]5(C)C([C@H]6O[C@H]6[C@]24OC3=O)[C@@]2(C)CCC(=O)C(C)(C)C2C[C@@H]5O)C[C@@H]1O (stereo partly drawn) [Compound 16, 3-oxo-7β,21β-dihydroxyl-11β,12β-epoxyl-urs-13β,28β-lactone] | 97.8 ± 4.75% | 6.9 µM |  | 268 to 273 °C | 6.86 ± 3.52 µM
